How the values were obtained:
SOS1 and KRAS G12C = SOS1 and KRAS G12C (Homo sapiens (Human), UniProt Q07889); test: KRAS::SOS1 AlphaScreen binding assay (KRAS G12C); conditions: average of at least two measurements
SOS1 and KRAS G12D = SOS1 and KRAS G12D (Homo sapiens (Human), UniProt Q07889); test: KRAS::SOS1 AlphaScreen binding assay (KRAS G12D); conditions: average of at least two measurements
[1] = test system: ERK phosphorylation in NCI-H358 SOS2 KO cells (KRAS G12C); test: Erk phosphorylation assay; type: cell-based, human; conditions: Homo sapiens, NCI-H358, NCI-H358 SOS2 KO cells, EGF stimulated; average of at least two measurements; read-out: pERK IC50
Summary of the method: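 NCI-H358 SOS2 KO cells (KRAS G12C) in DMEM/2% FBS were pretreated 50 min with compound, then stimulated with EGF (approx. 8 ng/mL) for 10-15 min. pERK1/2 (Thr202/Tyr204) measured in lysates by AlphaLISA SureFire; IC50 from variable-slope fit, averaged over at least two measurements.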

P450 3A4 = P450 3A4 (Homo sapiens (Human), UniProt P08684); test: Cytochrome P450 isoenzyme inhibition assay (P450 3A4, midazolam); type: in vitro ADME; conditions: human liver microsomes, Midazolam as substrate; read-out: CYP3A4 inhibition IC50
Summary of the method: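 Midazolam (5 μM) hydroxylation by human liver microsomes (0.1 mg/ml) in 0.1 M TRIS with 5 mM MgCl2, started with 1 mM NADPH. Five compound concentrations in duplicate, e.g. top 50 μM with 1:4 dilutions. Metabolite quantified by LC-MS/MS against internal standard; IC50 from inhibition relative to no-compound control.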

CYP3A4 = CYP3A4 (Homo sapiens (Human), UniProt P08684); test: Mechanism-based inhibition of CYP3A4 assay (MBI 3A4); type: in vitro ADME; conditions: human, human liver microsomes, probe midazolam 15 μM (hydroxy-midazolam formation), midazolam substrate, hydroxy-midazolam formation after 30 min preincubation relative to 0 min, read-out: MBI inhibition % ctrl. [%] with MDZ
Summary of the method: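 Human liver microsomes (0.2 mg/mL) were preincubated with compound at 0, 5 or 25 μM plus 1 mM NADPH for 0, 10 or 30 min, then diluted 1:10 and incubated 10 min with 15 μM midazolam. Hydroxy-midazolam was measured by LC/MS-MS; readout is formation after 30 min relative to 0 min preincubation (%).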

human hepatocytes = test: Metabolic stability in human hepatocytes; conditions: 1 μM test compound, 50% human serum, percentage of liver blood flow
Procedure: The metabolic degradation of a test compound is performed with hepatocytes in suspension. After recovery from cryopreservation, human hepatocytes are diluted in Dulbecco's modified eagle medium (supplemented with 3.5 μg glucagon/500 mL, 2.5 mg insulin/500 mL, 3.75 mg hydrocortisone/500 mL, 50% human serum) to obtain a final cell density of 1.0×10^6 cells/mL. Following a preincubation in a cell culture incubator (37° C., 10% CO2), test compound dissolved in DMSO is mixed with the hepatocyte suspension, resulting in a final test compound concentration of 1 μM and a final DMSO concentration of 0.05%.
The cell suspension is incubated at 37° C. (cell culture incubator, horizontal shaker) and samples are removed from the incubation after 0, 0.5, 1, 2, 4 and 6 hours. Samples are quenched with acetonitrile (containing internal standard) and pelleted by centrifugation. The supernatant is transferred to a deep-well plate and prepared for analysis of decline of parent compound by HPLC-MS/MS.
The percentage of remaining test compound is calculated using the peak area ratio (test compound/internal standard) of each incubation time point relative to the time point 0 peak area ratio. The log-transformed data are plotted versus incubation time, and the absolute value of the slope obtained by linear regression analysis is used to estimate in vitro half-life (T1/2).
CL_[sequence]_IN VIVO[mL/min/kg]=(CL_[sequence][μL/min/10^6cells]×hepatocellularity[10^6cells/g liver]×liver factor[g/kg body weight])/1000
Hepatic in vivo blood clearance (CL) is predicted according to the well-stirred liver model considering an average liver blood flow (QH) of 20.7 mL/min/kg:
CL[mL/min/kg]=CL_[sequence]_IN VIVO[mL/min/kg]×hepatic blood flow[mL/min/kg]/(CL_[sequence]_IN VIVO[mL/min/kg]+hepatic blood flow[mL/min/kg])
Results are expressed as percentage of hepatic blood flow:
QH[%]=CL[mL/min/kg]/hepatic blood flow[mL/min/kg])

Chain of SOS1 and KRAS G12C (Q07889 564-1049, stated change not applied): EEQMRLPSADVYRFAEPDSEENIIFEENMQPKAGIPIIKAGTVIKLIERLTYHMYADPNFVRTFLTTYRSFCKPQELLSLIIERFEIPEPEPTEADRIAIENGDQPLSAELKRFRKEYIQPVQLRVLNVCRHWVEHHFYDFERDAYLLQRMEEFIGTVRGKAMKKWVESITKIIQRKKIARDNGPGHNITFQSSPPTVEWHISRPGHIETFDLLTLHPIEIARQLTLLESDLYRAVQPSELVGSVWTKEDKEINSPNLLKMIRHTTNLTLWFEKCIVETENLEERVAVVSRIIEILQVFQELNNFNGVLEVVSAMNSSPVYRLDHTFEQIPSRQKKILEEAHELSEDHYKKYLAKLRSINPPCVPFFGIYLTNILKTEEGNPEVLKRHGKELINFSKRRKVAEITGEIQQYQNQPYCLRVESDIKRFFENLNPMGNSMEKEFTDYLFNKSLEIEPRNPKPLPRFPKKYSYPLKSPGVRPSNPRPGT
Chain of SOS1 and KRAS G12D (Q07889 564-1049, stated change not applied): as above
Chain of CYP3A4 (P08684 whole entry): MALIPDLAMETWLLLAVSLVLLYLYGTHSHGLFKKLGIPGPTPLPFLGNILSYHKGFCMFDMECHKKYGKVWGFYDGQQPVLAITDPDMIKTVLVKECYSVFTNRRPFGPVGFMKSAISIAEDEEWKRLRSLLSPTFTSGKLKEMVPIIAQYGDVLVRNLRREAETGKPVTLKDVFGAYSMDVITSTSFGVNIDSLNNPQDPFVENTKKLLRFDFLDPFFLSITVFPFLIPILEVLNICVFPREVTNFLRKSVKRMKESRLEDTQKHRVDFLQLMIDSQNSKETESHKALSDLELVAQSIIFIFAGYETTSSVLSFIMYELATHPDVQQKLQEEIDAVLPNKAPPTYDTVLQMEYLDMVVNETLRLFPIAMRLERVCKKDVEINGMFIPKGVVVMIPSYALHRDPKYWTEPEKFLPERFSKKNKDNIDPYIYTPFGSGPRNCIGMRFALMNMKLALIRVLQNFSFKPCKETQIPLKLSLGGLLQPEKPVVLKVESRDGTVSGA
Chain of P450 3A4 (P08684 whole entry): as above

Row | Compound | IC50 (SOS1 and KRAS G12C) | IC50 (SOS1 and KRAS G12D) | IC50 [1] | IC50 (P450 3A4) | inhibition at 30 min (CYP3A4) | Hepatic clearance - QH[%] in human hepatocytes (human hepatocytes)
1 | C[C@@H](NC(=O)c1cc(N2CCC(N3CCC[C@H]3CO)CC2)c2ncnn2c1)c1cccc(C(F)(F)F)c1F [Example E31] | 33 nM | 28 nM | 153 nM | > 50000 nM | 91% | 13%
2 | C[C@@H](NC(=O)c1cc(N2CCC(N3C[C@@H](O)[C@@H]3C)CC2)c2ncnn2c1)c1cccc(C(F)(F)F)c1F [Example E32] | 44 nM | 43 nM | 270 nM | > 50000 nM | 92% | 23%
3 | C[C@@H](NC(=O)c1cc(N2CCC3(CCCN3)CC2)c2ncnn2c1)c1cccc(C(F)(F)F)c1F [Example E34] | 42 nM | 34 nM | 62 nM | > 50000 nM | 106% | 10%
4 | C[C@@H](NC(=O)c1cc(N2CCC(N(C)C)CC2)c2ncnn2c1)c1cccc(C(F)(F)F)c1F [Example E35] | 57 nM | 48 nM | 160 nM | > 50000 nM | 94% | 6%
5 | C[C@@H](NC(=O)c1cc(N2CCC3(CCNC3)CC2)c2ncnn2c1)c1cccc(C(F)(F)F)c1F [Example E36] | 28 nM | 22 nM | 144 nM | > 50000 nM | 96% | 10%
6 | C[C@@H](NC(=O)c1cc(N2CCC3(CCCN3C)CC2)c2ncnn2c1)c1cccc(C(F)(F)F)c1F [Example E37] | 31 nM | 21 nM | 152 nM | > 50000 nM | 90% | 25%
7 | C[C@@H](O)CNC1CCN(c2cc(C(=O)N[C@H](C)c3cccc(C(F)(F)F)c3F)cn3ncnc23)CC1 [Example E39] | 53 nM | 54 nM | 251 nM | > 50000 nM | 75% | 43%
8 | C[C@H](O)CNC1CCN(c2cc(C(=O)N[C@H](C)c3cccc(C(F)(F)F)c3F)cn3ncnc23)CC1 [Example E40] | 50 nM | 53 nM | 277 nM | > 50000 nM | 75% | 22%
9 | C[C@@H](NC(=O)c1cc(N2CCC(N3CCC[C@H](O)C3)CC2)c2ncnn2c1)c1cccc(C(F)(F)F)c1F [Example E44] | 63 nM | 42 nM | 58 nM | > 50000 nM | 95% | 16%
10 | C[C@@H](NC(=O)c1cc(N2CCC3(CCCCN3)CC2)c2ncnn2c1)c1cccc(C(F)(F)F)c1F [Example E45] | 33 nM | 30 nM | 139 nM | > 50000 nM | 97% | <4%
11 | C[C@@H](NC(=O)c1cc(N2CCC3(CCCCN3C)CC2)c2ncnn2c1)c1cccc(C(F)(F)F)c1F [Example E46] | 34 nM | 31 nM | 162 nM | > 50000 nM | 98% | 9%
12 | C[C@@H](NC(=O)c1cc(N2CCC(N3CCCC3)CC2)c2ncnn2c1)c1cccc(C(F)(F)F)c1F [Example E48] | 69 nM | 60 nM | 82 nM | > 50000 nM | 92% | 27%
13 | C[C@@H](NC(=O)c1cc(N2CCC(NCC(C)(C)O)CC2)c2ncnn2c1)c1cccc(C(F)(F)F)c1F [Example E50] | 49 nM | 42 nM | 220 nM | > 50000 nM | 83% | 15%
14 | C[C@H](CO)NC1CCN(c2cc(C(=O)N[C@H](C)c3cccc(C(F)(F)F)c3F)cn3ncnc23)CC1 [Example E54] | 39 nM | 31 nM | 186 nM | > 50000 nM | 85% | 12%
15 | C[C@@H](NC(=O)c1cc(N2CCC(N(C)CCO)CC2)c2ncnn2c1)c1cccc(C(F)(F)F)c1F [Example E55] | 69 nM | 54 nM | 397 nM | > 50000 nM | 83% | <4%
16 | C[C@@H](NC(=O)c1cc(N2CCC(N3CC[C@@H](O)C3)CC2)c2ncnn2c1)c1cccc(C(F)(F)F)c1F [Example E57] | 65 nM | 52 nM | 149 nM | > 50000 nM | 106% | 15%
17 | C[C@@H](NC(=O)c1cc([C@H]2CC[C@H](N3CCC[C@@H](O)C3)CC2)c2ncnn2c1)c1cccc(C(F)F)c1F [Example E58] | 32 nM | 32 nM | 122 nM | > 50000 nM | 96% | 15%
18 | C[C@@H](NC(=O)c1cc([C@H]2CC[C@H](N3CC[C@](C)(O)C3)CC2)c2ncnn2c1)c1cccc(C(F)F)c1F [Example E59] | 42 nM | 41 nM | 166 nM | > 50000 nM | 99% | 15%
19 | C[C@@H](NC(=O)c1cc([C@H]2CC[C@H](N3C[C@H](F)C[C@@H]3CO)CC2)c2ncnn2c1)c1cccc(C(F)F)c1F [Example E60] | 21 nM | 20 nM | 290 nM | > 50000 nM | 90% | 26%
20 | C[C@@H]1C[C@@H](O)CN1[C@H]1CC[C@H](c2cc(C(=O)N[C@H](C)c3cccc(C(F)F)c3F)cn3ncnc23)CC1 [Example E62] | 22 nM | 15 nM | 315 nM | > 50000 nM | 98% | 9%
21 | C[C@@H](NC(=O)c1cc(C2=CCC(N3CCC[C@H](O)C3)CC2)c2ncnn2c1)c1cccc(C(F)F)c1F (stereo partly drawn) [Example E63] | 31 nM | 27 nM | 89 nM | > 50000 nM | 94% | 23%
22 | C[C@@H](NC(=O)c1cc([C@]2(O)CC[C@@H](N3CC[C@@H](F)C3)CC2)c2ncnn2c1)c1cccc(C(F)F)c1F [Example E65] | 90 nM | 93 nM | 165 nM | > 50000 nM | 102% | 38%
